{
  "source": "patent US20240209028A1",
  "about": "“CNP COMPOUNDS” (priority 2022, published 2024)",
  "note": "Starred links: 1 amine or outer side, 2 acyl side, 3 side chain; linkers in the order of their positions; H or OH if unused. Positions of bridges follow the written chain, without caps; N, C: chain ends. Residues, ends and D or L forms follow the SMILES beside them. *: point of attachment. C18 diacid = O=C(O)CCCCCCCCCCCCCCCCC(=O)*; γGlu = O=C(O)[C@H](CCC(=O)[*:2])N[*:1]; AEEA = NCCOCCOCC(=O)O",
  "data": [
    {"target": "T1, human natriuretic peptide receptor 2 (hNPR2) (Homo sapiens, UniProt P20594)", "T1 construct": "expressed in transfected cells; host or cells: HEK293 (ATCC CRL-1573), clone 35, co-transfected with pGloSensor-42F", "T1 sequence (P20594 23-1047)": "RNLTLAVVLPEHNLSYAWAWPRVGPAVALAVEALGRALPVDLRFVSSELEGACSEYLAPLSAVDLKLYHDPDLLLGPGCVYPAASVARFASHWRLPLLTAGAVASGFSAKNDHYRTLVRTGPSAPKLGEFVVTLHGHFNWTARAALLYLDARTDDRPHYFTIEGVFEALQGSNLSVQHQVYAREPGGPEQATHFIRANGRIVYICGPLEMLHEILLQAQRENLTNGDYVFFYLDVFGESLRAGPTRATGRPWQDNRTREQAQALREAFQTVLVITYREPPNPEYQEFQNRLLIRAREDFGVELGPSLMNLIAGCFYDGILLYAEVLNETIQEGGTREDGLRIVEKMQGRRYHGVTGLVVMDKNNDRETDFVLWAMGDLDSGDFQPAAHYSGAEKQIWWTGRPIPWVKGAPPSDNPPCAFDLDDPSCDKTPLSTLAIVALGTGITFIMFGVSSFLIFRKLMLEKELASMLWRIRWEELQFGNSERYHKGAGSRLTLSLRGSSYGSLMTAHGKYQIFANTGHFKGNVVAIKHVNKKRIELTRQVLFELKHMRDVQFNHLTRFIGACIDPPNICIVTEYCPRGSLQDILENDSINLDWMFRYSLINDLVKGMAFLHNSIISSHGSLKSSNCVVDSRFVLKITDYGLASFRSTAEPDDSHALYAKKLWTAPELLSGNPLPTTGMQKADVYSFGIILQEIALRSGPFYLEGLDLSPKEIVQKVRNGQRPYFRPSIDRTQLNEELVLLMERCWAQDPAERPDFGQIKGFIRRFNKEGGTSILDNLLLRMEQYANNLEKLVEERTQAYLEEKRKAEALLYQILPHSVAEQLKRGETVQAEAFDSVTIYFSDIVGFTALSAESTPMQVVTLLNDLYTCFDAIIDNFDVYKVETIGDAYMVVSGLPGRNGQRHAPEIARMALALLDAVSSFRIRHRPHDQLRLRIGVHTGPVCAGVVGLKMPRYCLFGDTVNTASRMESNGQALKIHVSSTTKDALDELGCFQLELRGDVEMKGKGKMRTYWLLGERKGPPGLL", "test": "In vitro hNPR2 activity assay (cGMP GloSensor reporter, HEK293)", "format": "cell-based", "conditions": "potency relative to CNP22 (0065)", "method_in_brief": "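Potency is the EC50 from a four-parameter logistic fit, also expressed relative to the in-plate CNP22 control (×100), with at least two replicates. Compounds (ten concentrations, […], HSA-free diluent with 1% OVA, 0.01% Tween20) were incubated 30 min at 37 °C on HEK293 cells co-expressing hNPR2 and a GloSensor cGMP luciferase. Luminescence detected with Bright-Glo.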", "units": {"hNPR2 0% HSA. [EC50% rel CNP]": "%"}, "values": [
      {"smiles": "CC[C@H](C)[C@@H]1NC(=O)[C@H](CCCNC(=N)N)NC(=O)[C@H](CC(=O)O)NC(=O)[C@H](CC(C)C)NC(=O)[C@@H]2CCCN2C(=O)[C@H](CC(C)C)NC(=O)CNC(=O)[C@H](Cc2ccccc2)NC(=O)[C@@H](NC(=O)CNC(=O)[C@H](CO)NC(=O)[C@H](CO)NC(=O)[C@@H](NC(=O)CNC(=O)[C@@H](NC(=O)[C@H](CCCCN)NC(=O)[C@H](CCC(N)=O)NC(=O)[C@H](C)NC(=O)CNC(=O)[C@H](Cc2c[nH]cn2)NC(=O)[C@H](Cc2ccc(O)cc2)NC(=O)[C@H](CCCCN)NC(=O)[C@H](CCCNC(=N)N)NC(=O)[C@H](C)NC(=O)COCCOCCNC(=O)COCCOCCNC(=O)CC[C@H](NC(=O)CC[C@H](NC(=O)CCCCCCCCCCCCCCCCC(=O)O)C(=O)O)C(=O)O)[C@@H](C)O)C(C)C)CSSC[C@@H](C(=O)O)NC(=O)CNC(=O)[C@H](CC(C)C)NC(=O)CNC(=O)[C@H](CO)NC(=O)[C@H](CC(C)C)NC(=O)[C@H](CO)NC(=O)CNC1=O", "note": "[compound 1354] ({C18 diacid-γGlu-γGlu-AEEA-AEEA}-ARKYHGAQKTGVSSGCFGLPLDRIGSLSGLGC-OH; disulfide 16-32)", "hNPR2 0% HSA. [EC50% rel CNP]": 27.5},
      {"smiles": "CC[C@H](C)[C@@H]1NC(=O)[C@H](CCCNC(=N)N)NC(=O)[C@H](CC(=O)O)NC(=O)[C@H](CC(C)C)NC(=O)[C@@H]2CCCN2C(=O)[C@H](CC(C)C)NC(=O)CNC(=O)[C@H](Cc2ccccc2)NC(=O)[C@@H](NC(=O)CNC(=O)[C@H](CO)NC(=O)[C@H](CO)NC(=O)[C@H](CC(C)C)NC(=O)CNC(=O)[C@H](CCCCN)NC(=O)[C@H](CCCCN)NC(=O)[C@H](CCC(N)=O)NC(=O)[C@H](C)NC(=O)CNC(=O)[C@H](CCCCN)NC(=O)[C@H](Cc2ccc(O)cc2)NC(=O)COCCOCCNC(=O)COCCOCCNC(=O)COCCOCCNC(=O)CC[C@H](NC(=O)CC[C@H](NC(=O)CCCCCCCCCCCCCCCCC(=O)O)C(=O)O)C(=O)O)CSSC[C@@H](C(=O)O)NC(=O)CNC(=O)[C@H](CC(C)C)NC(=O)CNC(=O)[C@H](CO)NC(=O)[C@H](CC(C)C)NC(=O)[C@H](CO)NC(=O)CNC1=O", "note": "[compound 1356] ({C18 diacid-γGlu-γGlu-AEEA-AEEA-AEEA}-YKGAQKKGLSSGCFGLPLDRIGSLSGLGC-OH; disulfide 13-29; C-terminus assumed)", "hNPR2 0% HSA. [EC50% rel CNP]": 22.4},
      {"smiles": "CC[C@H](C)[C@@H]1NC(=O)[C@H](CCCNC(=N)N)NC(=O)[C@H](CC(=O)O)NC(=O)[C@H](CC(C)C)NC(=O)[C@@H]2CCCN2C(=O)[C@H](CC(C)C)NC(=O)CNC(=O)[C@H](Cc2ccccc2)NC(=O)[C@@H](NC(=O)CNC(=O)[C@H](CCCCN)NC(=O)[C@H](CO)NC(=O)[C@H](CC(C)C)NC(=O)CNC(=O)[C@H](CCCCN)NC(=O)[C@H](CCCCN)NC(=O)[C@H](CCC(N)=O)NC(=O)[C@H](C)NC(=O)CNC(=O)[C@H](CCC(=O)O)NC(=O)[C@H](Cc2ccc(O)cc2)NC(=O)COCCOCCNC(=O)COCCOCCNC(=O)COCCOCCNC(=O)COCCOCCNC(=O)CC[C@H](NC(=O)CCCCCCCCCCCCCCCCC(=O)O)C(=O)O)CSSC[C@@H](C(=O)O)NC(=O)CNC(=O)[C@H](CC(C)C)NC(=O)CNC(=O)[C@H](CO)NC(=O)[C@H](CC(C)C)NC(=O)[C@H](CO)NC(=O)CNC1=O", "note": "[compound 1375] ({C18 diacid-γGlu-AEEA-AEEA-AEEA-AEEA}-YEGAQKKGLSKGCFGLPLDRIGSLSGLGC-OH; disulfide 13-29; C-terminus assumed)", "hNPR2 0% HSA. [EC50% rel CNP]": 16.2},
      {"smiles": "CC[C@H](C)[C@@H]1NC(=O)[C@H](CCCNC(=N)N)NC(=O)[C@H](CC(=O)O)NC(=O)[C@H](CC(C)C)NC(=O)[C@@H]2CCCN2C(=O)[C@H](CC(C)C)NC(=O)CNC(=O)[C@H](Cc2ccccc2)NC(=O)[C@@H](NC(=O)CNC(=O)[C@H](CCCCN)NC(=O)[C@H](CO)NC(=O)CNC(=O)CNC(=O)[C@H](CCCCN)NC(=O)[C@H](CCCCN)NC(=O)[C@H](CCC(N)=O)NC(=O)[C@H](C)NC(=O)CNC(=O)[C@H](CCC(=O)O)NC(=O)[C@H](Cc2ccc(O)cc2)NC(=O)COCCOCCNC(=O)COCCOCCNC(=O)CC[C@H](NC(=O)CCCCCCCCCCCCCCCCC(=O)O)C(=O)O)CSSC[C@@H](C(=O)O)NC(=O)CNC(=O)[C@H](CC(C)C)NC(=O)CNC(=O)[C@H](CO)NC(=O)[C@H](CC(C)C)NC(=O)[C@H](CO)NC(=O)CNC1=O", "note": "[compound 1377] ({C18 diacid-γGlu-AEEA-AEEA}-YEGAQKKGGSKGCFGLPLDRIGSLSGLGC-OH; disulfide 13-29)", "hNPR2 0% HSA. [EC50% rel CNP]": 28.2},
      {"smiles": "CC[C@H](C)[C@@H]1NC(=O)[C@H](CCCNC(=N)N)NC(=O)[C@H](CC(=O)O)NC(=O)[C@H](CC(C)C)NC(=O)[C@@H]2CCCN2C(=O)[C@H](CC(C)C)NC(=O)CNC(=O)[C@H](Cc2ccccc2)NC(=O)[C@@H](NC(=O)CNC(=O)[C@H](CO)NC(=O)[C@H](CO)NC(=O)[C@H](CC(C)C)NC(=O)CNC(=O)[C@H](CCCCN)NC(=O)[C@H](CCCCN)NC(=O)[C@H](CCC(N)=O)NC(=O)[C@H](C)NC(=O)CNC(=O)[C@H](CCC(=O)O)NC(=O)[C@H](Cc2ccc(O)cc2)NC(=O)[C@H](CO)NC(=O)[C@H](CCCNC(=N)N)NC(=O)[C@H](C)NC(=O)[C@H](CCC(N)=O)NC(=O)[C@@H]2CCCN2C(=O)[C@H](Cc2c[nH]cn2)NC(=O)[C@H](CCC(=O)O)NC(=O)[C@H](CCC(N)=O)NC(=O)COCCOCCNC(=O)COCCOCCNC(=O)CC[C@H](NC(=O)CCCCCCCCCCCCCCCCC(=O)O)C(=O)O)CSSC[C@@H](C(=O)O)NC(=O)CNC(=O)[C@H](CC(C)C)NC(=O)CNC(=O)[C@H](CO)NC(=O)[C@H](CC(C)C)NC(=O)[C@H](CO)NC(=O)CNC1=O", "note": "[compound 1379] ({C18 diacid-γGlu-AEEA-AEEA}-QEHPQARSYEGAQKKGLSSGCFGLPLDRIGSLSGLGC-OH; disulfide 21-37; C-terminus assumed)", "hNPR2 0% HSA. [EC50% rel CNP]": 33.5},
      {"smiles": "CC[C@H](C)[C@@H]1NC(=O)[C@H](CCCNC(=N)N)NC(=O)[C@H](CC(=O)O)NC(=O)[C@H](CC(C)C)NC(=O)[C@@H]2CCCN2C(=O)[C@H](CC(C)C)NC(=O)CNC(=O)[C@H](Cc2ccccc2)NC(=O)[C@@H](NC(=O)CNC(=O)[C@H](CO)NC(=O)[C@H](CO)NC(=O)[C@H](CC(C)C)NC(=O)CNC(=O)[C@H](CCCCN)NC(=O)[C@H](CCCCN)NC(=O)[C@H](CCC(N)=O)NC(=O)[C@H](C)NC(=O)CNC(=O)[C@H](CCCCN)NC(=O)[C@H](Cc2ccc(O)cc2)NC(=O)[C@H](CCCCN)NC(=O)[C@H](CCCNC(=N)N)NC(=O)[C@H](C)NC(=O)CC[C@H](NC(=O)CC[C@H](NC(=O)CC[C@H](NC(=O)CC[C@H](NC(=O)CCCCCCCCCCCCCCCCC(=O)O)C(=O)O)C(=O)O)C(=O)O)C(=O)O)CSSC[C@@H](C(=O)O)NC(=O)CNC(=O)[C@H](CC(C)C)NC(=O)CNC(=O)[C@H](CO)NC(=O)[C@H](CC(C)C)NC(=O)[C@H](CO)NC(=O)CNC1=O", "note": "[compound 1386] ({C18 diacid-γGlu-γGlu-γGlu-γGlu}-ARKYKGAQKKGLSSGCFGLPLDRIGSLSGLGC-OH; disulfide 16-32)", "hNPR2 0% HSA. [EC50% rel CNP]": 36.9}
    ]}
  ]
}
